According to ChEMBL document CHEMBL4680193, “Isoindoline scaffold-based dual inhibitors of HDAC6 and HSP90 suppressing the growth of lung cancer in vitro and in vivo” (Eur J Med Chem, 2020):
Active and inactive are the calls of the source. The calls are words filed in the database; no cut-off is given here.

Columns and labels:
[1] = tested on: A549; assay: Growth inhibition of human A549 cells incubated for 48 hrs by SRB assay; assay type: functional
[2] = biological target: Heat shock protein HSP 90-alpha (Homo sapiens, UniProt P07900); assay: Inhibition of HSP90a (unknown origin)
[3] = tested on: NCI-H1975; assay: cells; assay type: functional; conditions: Homo sapiens, time 48 hrs
[4] = biological target: Histone deacetylase; assay type: tissue-based, Homo sapiens; conditions: hela
[5] = biological target: Histone deacetylase 1 (Homo sapiens, UniProt Q13547); assay: Inhibition of recombinant human C-terminal FLAG-His-tagged HDAC1 (1 to 482 residues) expressed in Sf21 cells using RHK-K(Ac)-AMC as substrate incubated for 60 mins by fluorimetry analysis
[6] = biological target: Histone deacetylase 3 (Homo sapiens, UniProt O15379)
[7] = biological target: T1, Protein deacetylase HDAC6 (Homo sapiens, UniProt Q9UBN7); assay: Inhibition of recombinant human HDAC6 using RHK-K(Ac)-AMC as substrate by fluorescence based assay
T1 sequence (Q9UBN7 whole entry): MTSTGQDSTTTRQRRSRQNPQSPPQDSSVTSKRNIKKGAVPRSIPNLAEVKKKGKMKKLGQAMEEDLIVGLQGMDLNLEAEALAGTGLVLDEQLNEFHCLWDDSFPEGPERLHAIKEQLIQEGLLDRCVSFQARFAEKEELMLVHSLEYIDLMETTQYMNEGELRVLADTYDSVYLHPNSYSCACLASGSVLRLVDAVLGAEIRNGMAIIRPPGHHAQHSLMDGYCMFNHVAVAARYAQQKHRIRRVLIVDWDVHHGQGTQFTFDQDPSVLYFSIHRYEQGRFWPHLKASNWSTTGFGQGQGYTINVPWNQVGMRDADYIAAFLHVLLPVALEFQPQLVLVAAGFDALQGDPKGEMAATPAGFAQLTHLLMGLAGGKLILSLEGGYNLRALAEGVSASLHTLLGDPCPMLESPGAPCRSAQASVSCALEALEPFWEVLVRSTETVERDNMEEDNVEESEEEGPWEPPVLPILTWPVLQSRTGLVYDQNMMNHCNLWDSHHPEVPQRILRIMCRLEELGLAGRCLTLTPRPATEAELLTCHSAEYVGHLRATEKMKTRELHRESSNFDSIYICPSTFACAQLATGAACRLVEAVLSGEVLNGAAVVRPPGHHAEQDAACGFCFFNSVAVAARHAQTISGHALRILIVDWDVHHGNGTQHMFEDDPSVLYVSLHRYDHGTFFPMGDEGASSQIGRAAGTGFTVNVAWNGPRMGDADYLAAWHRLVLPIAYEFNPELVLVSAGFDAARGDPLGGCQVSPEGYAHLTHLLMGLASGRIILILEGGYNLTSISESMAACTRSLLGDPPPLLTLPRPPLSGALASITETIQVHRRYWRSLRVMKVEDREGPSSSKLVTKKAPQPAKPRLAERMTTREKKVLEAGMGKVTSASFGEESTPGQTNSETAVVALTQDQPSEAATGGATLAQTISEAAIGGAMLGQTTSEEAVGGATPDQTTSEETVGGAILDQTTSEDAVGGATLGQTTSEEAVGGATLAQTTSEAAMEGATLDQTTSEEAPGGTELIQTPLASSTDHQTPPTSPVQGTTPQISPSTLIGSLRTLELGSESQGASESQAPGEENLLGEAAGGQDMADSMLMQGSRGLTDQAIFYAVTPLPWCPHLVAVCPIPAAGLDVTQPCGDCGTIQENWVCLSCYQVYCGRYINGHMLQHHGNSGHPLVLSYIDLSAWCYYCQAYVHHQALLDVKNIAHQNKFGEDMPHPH

[8] = biological target: T2, Histone deacetylase 8 (Homo sapiens, UniProt Q9BY41); assay: Inhibition of recombinant human HDAC8 using RHK-K(Ac)-AMC as substrate by fluorescence based assay
T2 sequence (Q9BY41 whole entry): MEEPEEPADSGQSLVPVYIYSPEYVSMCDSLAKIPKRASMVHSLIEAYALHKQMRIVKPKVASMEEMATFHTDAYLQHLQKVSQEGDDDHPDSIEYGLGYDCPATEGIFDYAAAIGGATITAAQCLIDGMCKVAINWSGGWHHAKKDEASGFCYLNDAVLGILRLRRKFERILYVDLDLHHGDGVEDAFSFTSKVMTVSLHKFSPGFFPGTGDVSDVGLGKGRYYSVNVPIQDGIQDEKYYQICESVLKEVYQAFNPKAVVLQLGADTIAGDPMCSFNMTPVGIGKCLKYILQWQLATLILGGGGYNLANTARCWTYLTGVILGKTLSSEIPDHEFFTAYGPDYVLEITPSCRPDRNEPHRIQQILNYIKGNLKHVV

[9] = species: Homo sapiens; assay: Selectivity index, ratio of IC50 for recombinant human C-terminal FLAG-His-tagged HDAC1 (1 to 482 residues) expressed in Sf21 cells to IC50 for recombinant human HDAC6
[10] = species: Homo sapiens; assay: Selectivity index, ratio of IC50 for recombinant human HDAC3 to IC50 for recombinant human HDAC6
[11] = species: Homo sapiens; assay: Selectivity index, ratio of IC50 for recombinant human HDAC8 to IC50 for recombinant human HDAC6
[12] = tested on: NCI-H1975; assay: Antitumor activity against human NCI-H1975 cells xenografted in BALB/c mouse assessed as reduction in tumor growth at 20 mg/kg, ip administered for 2 weeks and measured after 2 week relative to control; assay type: functional; conditions: 336 h, read-out: TGI
[13] = biological target: T3, Heat shock protein HSP90 (Homo sapiens) (UniProt P07900+P08238); assay: Inhibition of HSP90 in human NCI-H1975 cells assessed as decrease in Akt Ser473 phosphorylation at 1 to 3 uM measured after 24 hrs by Western blot analysis; assay type: cell-based; conditions: dose 1-3 µM
[14] = biological target: T3, Heat shock protein HSP90 (Homo sapiens); assay: Inhibition of HSP90 in human NCI-H1975 cells assessed as decrease in STAT3 Tyr705 phosphorylation at 1 to 3 uM measured after 24 hrs by Western blot analysis; assay type: cell-based; conditions: dose 1-3 µM

Histone deacetylase 1, sequence (Q13547 whole entry, the tested form may be a part): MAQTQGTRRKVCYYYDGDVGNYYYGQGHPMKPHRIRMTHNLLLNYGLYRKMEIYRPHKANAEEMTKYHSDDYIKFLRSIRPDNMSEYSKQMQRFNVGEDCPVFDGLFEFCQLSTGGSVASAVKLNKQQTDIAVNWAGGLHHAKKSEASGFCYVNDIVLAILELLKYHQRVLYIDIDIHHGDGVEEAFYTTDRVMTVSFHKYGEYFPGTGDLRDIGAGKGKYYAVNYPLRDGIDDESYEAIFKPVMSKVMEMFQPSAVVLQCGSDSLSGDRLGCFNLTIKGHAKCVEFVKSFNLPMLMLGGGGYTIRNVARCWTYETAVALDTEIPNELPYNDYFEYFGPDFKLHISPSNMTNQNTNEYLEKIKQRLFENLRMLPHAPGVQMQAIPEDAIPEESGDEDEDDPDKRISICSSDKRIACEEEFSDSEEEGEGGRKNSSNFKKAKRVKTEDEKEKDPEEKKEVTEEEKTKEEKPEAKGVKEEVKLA
Histone deacetylase 3, sequence (O15379 whole entry): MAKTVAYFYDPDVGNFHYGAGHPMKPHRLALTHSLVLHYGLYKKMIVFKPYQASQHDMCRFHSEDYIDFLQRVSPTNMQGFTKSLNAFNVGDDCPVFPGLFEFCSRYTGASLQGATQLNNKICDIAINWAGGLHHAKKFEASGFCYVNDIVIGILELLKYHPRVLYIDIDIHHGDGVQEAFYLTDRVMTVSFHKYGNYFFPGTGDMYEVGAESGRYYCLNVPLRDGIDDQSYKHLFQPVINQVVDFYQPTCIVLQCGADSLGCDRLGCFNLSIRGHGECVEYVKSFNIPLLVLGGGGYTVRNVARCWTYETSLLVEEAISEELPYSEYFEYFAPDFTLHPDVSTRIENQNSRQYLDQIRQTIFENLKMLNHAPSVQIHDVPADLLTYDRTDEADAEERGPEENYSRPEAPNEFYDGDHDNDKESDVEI

| Compound | GI50 [1] [nM] | IC50 [2] [nM] | GI50 ([1]; Homo sapiens, A549) [nM] | GI50 [3] [nM] | IC50 [4] [nM] | IC50 [5] [nM] | IC50 [6] [nM] | IC50 [7] [nM] | IC50 [8] [nM] | Ratio IC50 [9] | Ratio IC50 [10] | Ratio IC50 [11] | inhibition in vivo at 20 mg/kg [12] [%] | inhibition [13] | inhibition [14] |
| --- | --- | --- | --- | --- | --- | --- | --- | --- | --- | --- | --- | --- | --- | --- | --- |
| O=C(CCCCCCC(=O)Nc1ccccc1)NO [VORINOSTAT] | 1020 | > 1000 |  |  |  |  |  |  |  |  |  |  |  |  |  |
| CC(C)c1cc(C(=O)N2Cc3ccc(NC(=O)CCCCC(=O)NO)cc3C2)c(O)cc1O |  | 109 | 870 | 1640 | > 1000 | 6880 | 2810 | 330 | 7420 | 20.8 | 8.5 | 22.5 |  |  |  |
| CC(C)c1cc(C(=O)N2Cc3ccc(NC(=O)CCCCCCC(=O)NO)cc3C2)c(O)cc1O |  | 43.9 | 2920 | 434000 | 1683 | 554 | 388 | 2.21 | 1510 | 250 | 175 | 683 |  |  |  |
| CN(C)C/C=C/C(=O)Nc1cc2c(Nc3ccc(F)c(Cl)c3)ncnc2cc1O[C@H]1CCOC1 [AFATINIB] |  |  |  |  |  |  |  |  |  |  |  |  | 63.8 |  |  |
| CC(C)c1cc(C(=O)N2Cc3ccc(NCc4ccc(CN5CCN(C)CC5)cc4)cc3C2)c(O)cc1O |  |  |  |  |  |  |  |  |  |  |  |  |  | Active | Active |
| COc1c(C)cnc(Cn2cnc3c(Cl)nc(N)nc32)c1C [BIIB021] |  |  | 330 | 200 | > 1000 |  |  |  |  |  |  |  |  |  |  |
| CC(C)c1cc(C(=O)N2Cc3ccc(NC(=O)CCC(=O)NO)cc3C2)c(O)cc1O |  | 123 | 830 | 39000 | > 1000 |  |  | > 10000 | 7320 |  |  |  |  |  |  |
| CC(C)c1cc(C(=O)N2Cc3ccc(/C=C/C(=O)NO)cc3C2)c(O)cc1O |  | 104 | 2740 | 32000 | > 1000 | 3150 | 3990 | 303 | 675 | 10.4 | 13.2 | 2.2 |  |  |  |
| CC(C)c1cc(C(=O)N2Cc3ccc(NCc4ccc(C(=O)NO)cc4)cc3C2)c(O)cc1O |  | 66 | 370 | 130 | > 1000 | > 10000 | 9850 | 33.3 | 420 | > 300 | 296 | 12.6 |  |  |  |
| CC(C)c1cc(C(=O)N2Cc3ccc(NC(=O)CCCC(=O)NO)cc3C2)c(O)cc1O |  | 136 | > 10000 | > 10000 | > 1000 | 7430 | 4410 | 68.6 |  | 108 | 64.3 |  |  |  |  |
| CC(C)c1cc(C(=O)N2Cc3ccc(NC(=O)CCCCCC(=O)NO)cc3C2)c(O)cc1O |  | 43.9 | 2220 | 680 | 521.4 | 3810 | 2210 | 9.44 | 2010 | 404 | 234 | 213 |  |  |  |
| CC(C)c1cc(C(=O)N2Cc3ccc(NC(=O)CCCCCCCC(=O)NO)cc3C2)c(O)cc1O |  | 422 | 235000 | 1070 | 198.9 | 1080 | 494 | 2.12 | > 10000 | 507 | 233 | > 4720 |  |  |  |
